Results as given in ChEMBL document CHEMBL1140081 (J Med Chem, 2008).
pIC50: −log10 of the molar value.

What was measured:
[1] = test system: Human immunodeficiency virus 1; test: Antiviral activity against HIV1 3B in human MT4 cells in presence of 50% normal human serum; format: functional; settings: read-out: CIC95
[2] = Inhibition of HCV polymerase; parameters: species or system Hepacivirus hominis
[3] = Inhibition of HIV reverse transcriptase; parameters: species or system Human immunodeficiency virus
[4] = Inhibition of HIV ribonuclease H; parameters: species or system Human immunodeficiency virus
[5] = Inhibition of human DNA polymerase alpha
DNA polymerase beta = DNA polymerase beta (Homo sapiens, UniProt P06746); test: Inhibition of human DNA polymerase beta
[6] = Inhibition of human DNA polymerase gamma
Cytochrome P450 1A2 = target: T1, Cytochrome P450 1A2 (Homo sapiens, UniProt P05177); test: Inhibition of CYP1A2; format: ADME
T1 sequence (P05177 whole entry): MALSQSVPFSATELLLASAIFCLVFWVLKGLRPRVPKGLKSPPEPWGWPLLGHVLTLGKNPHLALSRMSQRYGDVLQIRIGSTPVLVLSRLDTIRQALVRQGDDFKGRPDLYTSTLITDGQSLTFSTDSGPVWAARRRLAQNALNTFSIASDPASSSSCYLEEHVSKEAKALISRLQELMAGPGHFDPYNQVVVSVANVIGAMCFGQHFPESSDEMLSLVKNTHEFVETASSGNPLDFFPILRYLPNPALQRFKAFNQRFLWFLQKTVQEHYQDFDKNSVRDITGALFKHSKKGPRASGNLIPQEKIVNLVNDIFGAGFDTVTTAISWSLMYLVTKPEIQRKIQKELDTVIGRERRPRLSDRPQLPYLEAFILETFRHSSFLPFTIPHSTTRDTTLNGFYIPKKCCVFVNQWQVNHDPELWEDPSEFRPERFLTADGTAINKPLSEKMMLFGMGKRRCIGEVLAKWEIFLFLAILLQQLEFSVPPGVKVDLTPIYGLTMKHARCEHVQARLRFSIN

Cytochrome P450 2C9 = Cytochrome P450 2C9 (Homo sapiens, UniProt P11712); test: Inhibition of CYP2C9; format: ADME
Chain of Cytochrome P450 2C9 (P11712 whole entry): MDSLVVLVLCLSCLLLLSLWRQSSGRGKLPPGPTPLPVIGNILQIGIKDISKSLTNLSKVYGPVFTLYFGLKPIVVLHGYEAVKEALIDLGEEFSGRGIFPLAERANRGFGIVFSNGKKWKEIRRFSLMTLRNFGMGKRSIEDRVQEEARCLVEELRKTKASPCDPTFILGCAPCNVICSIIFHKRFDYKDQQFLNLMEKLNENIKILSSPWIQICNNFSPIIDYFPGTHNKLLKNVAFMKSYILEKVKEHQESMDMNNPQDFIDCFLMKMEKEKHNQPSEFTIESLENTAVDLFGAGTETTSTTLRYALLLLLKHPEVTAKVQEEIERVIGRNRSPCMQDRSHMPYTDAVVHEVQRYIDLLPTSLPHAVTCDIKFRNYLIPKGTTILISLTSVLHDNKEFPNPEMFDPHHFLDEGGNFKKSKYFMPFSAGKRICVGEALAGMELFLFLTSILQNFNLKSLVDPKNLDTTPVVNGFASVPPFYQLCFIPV

Cytochrome P450 2D6 = Cytochrome P450 2D6 (Homo sapiens, UniProt P10635); test: Inhibition of CYP2D6; format: ADME
Chain of Cytochrome P450 2D6 (P10635 whole entry): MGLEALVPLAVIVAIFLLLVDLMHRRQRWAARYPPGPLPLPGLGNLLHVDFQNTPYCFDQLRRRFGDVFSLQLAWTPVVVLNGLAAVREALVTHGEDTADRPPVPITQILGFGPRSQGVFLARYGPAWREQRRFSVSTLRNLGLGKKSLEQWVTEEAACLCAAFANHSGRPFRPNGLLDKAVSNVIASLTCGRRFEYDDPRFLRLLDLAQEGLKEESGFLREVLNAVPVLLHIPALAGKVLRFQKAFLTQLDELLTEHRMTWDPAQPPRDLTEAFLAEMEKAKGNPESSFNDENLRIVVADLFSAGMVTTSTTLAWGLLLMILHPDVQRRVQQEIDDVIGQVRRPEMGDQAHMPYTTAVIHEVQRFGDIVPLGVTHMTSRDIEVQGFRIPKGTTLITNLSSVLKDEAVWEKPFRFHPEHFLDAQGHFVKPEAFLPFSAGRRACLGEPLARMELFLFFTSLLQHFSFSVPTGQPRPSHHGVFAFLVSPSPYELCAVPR

Cytochrome P450 3A4 = Cytochrome P450 3A4 (Homo sapiens, UniProt P08684); test: Inhibition of CYP3A4; format: ADME
Chain of Cytochrome P450 3A4 (P08684 whole entry): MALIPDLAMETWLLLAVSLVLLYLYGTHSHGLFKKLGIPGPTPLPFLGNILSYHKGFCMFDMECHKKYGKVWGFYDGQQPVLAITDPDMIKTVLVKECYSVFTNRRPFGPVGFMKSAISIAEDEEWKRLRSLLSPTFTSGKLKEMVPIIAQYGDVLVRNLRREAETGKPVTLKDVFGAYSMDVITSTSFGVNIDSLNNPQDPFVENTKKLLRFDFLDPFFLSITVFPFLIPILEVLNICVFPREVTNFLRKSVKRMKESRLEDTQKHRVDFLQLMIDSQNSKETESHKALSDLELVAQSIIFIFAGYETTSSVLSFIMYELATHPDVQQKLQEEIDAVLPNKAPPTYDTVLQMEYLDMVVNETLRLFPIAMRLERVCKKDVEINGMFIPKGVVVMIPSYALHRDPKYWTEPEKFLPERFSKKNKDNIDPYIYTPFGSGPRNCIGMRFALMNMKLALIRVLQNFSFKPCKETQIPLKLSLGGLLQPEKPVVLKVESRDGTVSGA

[7] = Plasma clearance in Sprague-Dawley rat at 3 mg/kg, iv; format: ADME, organism-based; parameters: dose 3 mg/kg, route intravenous
[8] = Terminal half life in Sprague-Dawley rat at 3 mg/kg, iv; format: ADME, organism-based; parameters: dose 3 mg/kg, route intravenous; settings: in vivo, read-out: beta t1/2 (converted)
[9] = Volume of distribution in Sprague-Dawley rat at 3 mg/kg, iv; format: ADME, organism-based; parameters: dose 3 mg/kg, route intravenous; settings: in vivo
[10] = Plasma clearance in rhesus monkey at 1 mg/kg, iv; format: ADME, organism-based, Macaca mulatta; parameters: dose 1 mg/kg, route intravenous
[11] = Terminal half life in rhesus monkey at 1 mg/kg, iv; format: ADME, organism-based, Macaca mulatta; parameters: dose 1 mg/kg, route intravenous; settings: in vivo, read-out: beta t1/2 (converted)
[12] = Plasma clearance in dog at 1 mg/kg, iv; format: ADME, organism-based, Canis lupus familiaris; parameters: dose 1 mg/kg, route intravenous
[13] = Terminal half life in dog at 1 mg/kg, iv; format: ADME, organism-based, Canis lupus familiaris; parameters: dose 1 mg/kg, route intravenous; settings: in vivo, read-out: beta t1/2 (converted)
[14] = Volume of distribution in dog at 1 mg/kg, iv; format: ADME, organism-based, Canis lupus familiaris; parameters: dose 1 mg/kg, route intravenous; settings: in vivo
[15] = Oral bioavailability in po dosed Sprague-Dawley rat; format: ADME, organism-based; settings: in vivo
[16] = Oral bioavailability in po dosed dog; format: ADME, organism-based, Canis lupus familiaris; settings: in vivo
[17] = Oral bioavailability in po dosed rhesus monkey; format: ADME, organism-based, Macaca mulatta; settings: in vivo
[18] = Cmax in Sprague-Dawley rat at 3 mg/kg, po; format: ADME, organism-based; parameters: dose 3 mg/kg, route oral; settings: in vivo
[19] = Cmax in dog at 10 mg/kg, po; format: ADME, organism-based, Canis lupus familiaris; parameters: dose 10 mg/kg, route oral; settings: in vivo
[20] = Cmax in dog at 2 mg/kg, po; format: ADME, organism-based, Canis lupus familiaris; parameters: dose 2 mg/kg, route oral; settings: in vivo
[21] = Cmax in po dosed rhesus monkey; format: ADME, organism-based, Macaca mulatta; parameters: route oral; settings: in vivo
[22] = Terminal half life in po dosed rhesus monkey; format: ADME, organism-based, Macaca mulatta; settings: in vivo, read-out: beta t1/2 (converted)
[23] = AUC in Sprague-Dawley rat at 3 mg/kg, po; format: ADME, organism-based; parameters: dose 3 mg/kg, route oral; settings: plasma
[24] = AUC in dog at 10 mg/kg, po; format: ADME, organism-based, Canis lupus familiaris; parameters: dose 10 mg/kg, route oral; settings: plasma
[25] = AUC in rhesus monkey at 10 mg/kg, po; format: ADME, organism-based, Macaca mulatta; parameters: dose 10 mg/kg, route oral; settings: plasma
[26] = AUC in dog at 2 mg/kg, po; format: ADME, organism-based, Canis lupus familiaris; parameters: dose 2 mg/kg, route oral; settings: plasma
[27] = test system: Human immunodeficiency virus 1; test: Antiviral activity against HIV1 with integrase T66I/M154 mutation by single cycle infectivity assay in presence of 10%FBS; format: functional
[28] = test system: Human immunodeficiency virus 1; test: Antiviral activity against HIV1 with integrase T66I/S153Y mutation by single cycle infectivity assay in presence of 10%FBS; format: functional
[29] = test system: Human immunodeficiency virus 1; test: Antiviral activity against HIV1 with integrase N155S mutation by single cycle infectivity assay in presence of 10%FBS; format: functional
[30] = test system: Human immunodeficiency virus 1; test: Antiviral activity against HIV1 with integrase T125K/F121Y mutation by single cycle infectivity assay in presence of 10%FBS; format: functional
[31] = test system: Human immunodeficiency virus 1; test: Antiviral activity against HIV1 with integrase T66I/L74M/V151I mutation by single cycle infectivity assay in presence of 10%FBS; format: functional
[32] = Volume of distribution in rhesus monkey at 1 mg/kg, iv; settings: in vivo
[33] = test system: Human immunodeficiency virus 1; test: Antiviral activity against HIV1 3B in human MT4 cells in presence of 10% heat-inactivated fetal bovine serum; settings: Human immunodeficiency virus 1, 3B, read-out: CIC95
[34] = target: Human immunodeficiency virus type 1 integrase (Human immunodeficiency virus 1, UniProt Q7ZJM1); test: Inhibition of HIV1 recombinant integrase strand transfer activity
Chain of Human immunodeficiency virus type 1 integrase (Q7ZJM1 whole entry): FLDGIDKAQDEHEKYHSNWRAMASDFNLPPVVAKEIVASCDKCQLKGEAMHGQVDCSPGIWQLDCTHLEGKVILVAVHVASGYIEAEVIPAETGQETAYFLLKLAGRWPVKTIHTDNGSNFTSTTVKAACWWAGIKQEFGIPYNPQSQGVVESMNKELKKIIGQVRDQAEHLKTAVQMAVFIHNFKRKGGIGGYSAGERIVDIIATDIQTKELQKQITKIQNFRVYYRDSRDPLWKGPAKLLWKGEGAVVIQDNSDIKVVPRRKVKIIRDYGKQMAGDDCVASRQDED

[35] = target: Voltage-gated inwardly rectifying potassium channel KCNH2 (Homo sapiens, UniProt Q12809); test: Binding affinity to human ERG
Chain of Voltage-gated inwardly rectifying potassium channel KCNH2 (Q12809 whole entry): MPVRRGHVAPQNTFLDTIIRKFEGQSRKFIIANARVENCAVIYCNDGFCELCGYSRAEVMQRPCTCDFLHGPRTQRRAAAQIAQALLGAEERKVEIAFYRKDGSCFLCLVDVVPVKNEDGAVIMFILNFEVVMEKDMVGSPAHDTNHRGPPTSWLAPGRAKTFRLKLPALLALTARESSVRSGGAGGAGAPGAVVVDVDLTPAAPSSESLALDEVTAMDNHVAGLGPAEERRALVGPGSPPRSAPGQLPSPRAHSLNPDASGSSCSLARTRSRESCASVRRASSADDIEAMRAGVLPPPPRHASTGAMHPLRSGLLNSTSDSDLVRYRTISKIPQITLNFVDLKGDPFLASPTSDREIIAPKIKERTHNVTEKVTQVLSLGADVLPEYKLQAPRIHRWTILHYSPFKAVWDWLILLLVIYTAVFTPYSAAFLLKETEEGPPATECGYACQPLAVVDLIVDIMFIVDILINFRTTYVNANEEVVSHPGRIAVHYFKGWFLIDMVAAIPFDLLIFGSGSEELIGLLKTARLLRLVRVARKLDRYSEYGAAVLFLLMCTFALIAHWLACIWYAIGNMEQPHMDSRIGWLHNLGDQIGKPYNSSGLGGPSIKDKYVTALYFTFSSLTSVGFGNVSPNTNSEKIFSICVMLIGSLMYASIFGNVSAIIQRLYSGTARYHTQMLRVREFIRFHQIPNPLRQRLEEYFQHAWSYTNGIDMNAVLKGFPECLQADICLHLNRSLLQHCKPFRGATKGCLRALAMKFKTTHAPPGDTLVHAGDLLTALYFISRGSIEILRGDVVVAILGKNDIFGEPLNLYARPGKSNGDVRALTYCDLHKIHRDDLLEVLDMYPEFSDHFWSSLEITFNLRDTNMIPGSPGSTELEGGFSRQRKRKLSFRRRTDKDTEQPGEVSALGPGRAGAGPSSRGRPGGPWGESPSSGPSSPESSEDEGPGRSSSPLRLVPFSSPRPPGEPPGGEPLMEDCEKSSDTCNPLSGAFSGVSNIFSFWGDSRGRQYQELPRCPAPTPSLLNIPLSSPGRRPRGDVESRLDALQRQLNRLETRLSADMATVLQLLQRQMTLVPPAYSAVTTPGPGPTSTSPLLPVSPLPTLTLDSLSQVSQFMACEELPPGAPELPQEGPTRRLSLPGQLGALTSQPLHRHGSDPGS

[36] = Primary phase half life in Sprague-Dawley rat at 3 mg/kg, iv; format: ADME, organism-based; parameters: dose 3 mg/kg, route intravenous; settings: in vivo, read-out: alphat1/2 (converted)
[37] = Plasma clearance in dog at 5 mg/kg, iv; format: ADME, organism-based, Canis lupus familiaris; parameters: dose 5 mg/kg, route intravenous
[38] = Primary phase half life in dog at 5 mg/kg, iv; format: ADME, organism-based, Canis lupus familiaris; parameters: dose 5 mg/kg, route intravenous; settings: in vivo, read-out: alphat1/2 (converted)
[39] = Terminal half life in dog at 5 mg/kg, iv; format: ADME, organism-based, Canis lupus familiaris; parameters: dose 5 mg/kg, route intravenous; settings: in vivo, read-out: beta t1/2 (converted)
[40] = Volume of distribution in dog at 5 mg/kg, iv; format: ADME, organism-based, Canis lupus familiaris; parameters: dose 5 mg/kg, route intravenous; settings: in vivo
[41] = Primary phase half life in rhesus monkey at 1 mg/kg, iv; format: ADME, organism-based, Macaca mulatta; parameters: dose 1 mg/kg, route intravenous; settings: in vivo, read-out: alphat1/2 (converted)
[42] = Cmax in rhesus monkey at 10 mg/kg, po; format: ADME, organism-based, Macaca mulatta; parameters: dose 10 mg/kg, route oral; settings: in vivo
[43] = Terminal half life in po dosed Sprague-Dawley rat; format: ADME, organism-based; settings: in vivo
[44] = Terminal half life in dog at 10 mg/kg, po; format: ADME, organism-based, Canis lupus familiaris; parameters: dose 10 mg/kg, route oral; settings: in vivo, read-out: beta t1/2 (converted)
[45] = AUC in Sprague-Dawley rat at 100 mg/kg, po using 1% methyl cellulose as vehicle; format: ADME, organism-based; parameters: dose 100 mg/kg, route oral; settings: in vivo
[46] = Cmax in Sprague-Dawley rat at 100 mg/kg, po using 1% methyl cellulose as vehicle; format: ADME, organism-based; parameters: dose 100 mg/kg, route oral; settings: in vivo
[47] = AUC in Sprague-Dawley rat at 100 mg/kg, po using PEG400 as vehicle; format: ADME, organism-based; parameters: dose 100 mg/kg, route oral; settings: plasma
[48] = Cmax in Sprague-Dawley rat at 100 mg/kg, po using PEG400 as vehicle; format: ADME, organism-based; parameters: dose 100 mg/kg, route oral; settings: in vivo
[49] = Cmax in po dosed Sprague-Dawley rat; format: ADME, organism-based; parameters: route oral; settings: in vivo
[50] = Plasma concentration in dog at 10 mg/kg, po after 12 hrs; format: ADME, organism-based, Canis lupus familiaris; parameters: dose 10 mg/kg, route oral
[51] = Plasma concentration in dog at 2 mg/kg, po after 12 hrs; format: ADME, organism-based, Canis lupus familiaris; parameters: dose 2 mg/kg, route oral
[52] = Human immunodeficiency virus 1, 3B, MT4

Cc1nnc(C(=O)NC(C)(C)c2nc(C(=O)NCc3ccc(F)cc3)c(O)c(=O)n2C)o1
IC95 [1, 52]: 0.031 µM
pIC50 [2]: < 4.30
pIC50 [3]: < 4.30
pIC50 [4]: < 4.30
pIC50 [5]: < 4.30
pIC50 (DNA polymerase beta): < 4.30
pIC50 [6]: < 4.30
pIC50 (Cytochrome P450 1A2): < 4.30
pIC50 (Cytochrome P450 2C9): < 4.30
pIC50 (Cytochrome P450 2D6): < 4.30
pIC50 (Cytochrome P450 3A4): < 4.30
clearance [7]: 39 mL/min/kg
half-life [8]: 2 h
Vd [9]: 2 L/kg
clearance [10]: 18 mL/min/kg
half-life [11]: 4 h
clearance [12]: 6 mL/min/kg
half-life [13]: 11 h
Vd [14]: 0.9 L/kg
bioavailability [15]: 37%
bioavailability [16]: 45%
bioavailability [17]: 8%
Cmax [18]: 1.2 µM
Cmax [19]: 8 µM
Cmax [20]: 3 µM
Cmax [21]: 0.3 µM
half-life [22]: 7 h
AUC [23]: 1 µM·h
AUC [24]: 21 µM·h
AUC [25]: 1.8 µM·h
AUC [26]: 7 µM·h
Activity [27]: 1%
Activity [28]: 1%
Activity [29]: 10%
Activity [30]: 8%
Activity [31]: 6%
Vd [32]: 1.2 L/kg
IC95 [33]: 0.019 µM

CN(C)C(=O)C(=O)NC(C)(C)c1nc(C(=O)NCc2ccc(F)cc2)c(O)c(=O)n1C
pIC50 [34]: 8.00
IC95 [1, 52]: 0.074 µM
pIC50 [2]: < 4.30
pIC50 [3]: < 4.30
pIC50 [4]: < 4.30
pIC50 [5]: < 4.30
pIC50 (DNA polymerase beta): < 4.30
pIC50 [6]: < 4.30
pIC50 (Cytochrome P450 1A2): < 4.30
pIC50 (Cytochrome P450 2C9): < 4.30
pIC50 (Cytochrome P450 2D6): < 4.30
pIC50 (Cytochrome P450 3A4): < 4.30
pIC50 [35]: < 4.30
clearance [7]: 20 mL/min/kg
half-life [36]: 0.4 h
half-life [8]: 6 h
Vd [9]: 1.3 L/kg
clearance [37]: 11 mL/min/kg
half-life [38]: 1.2 h
half-life [39]: 16 h
Vd [40]: 1.1 L/kg
clearance [10]: 14 mL/min/kg
half-life [41]: 0.9 h
half-life [11]: 3 h
bioavailability [17]: 24%
Cmax [18]: 0.6 µM
Cmax [19]: 11 µM
Cmax [42]: 4.5 µM
half-life [43]: 0.9 h
half-life [44]: 4.9 h
half-life [22]: 1.9 h
AUC [23]: 0.7 µM·h
AUC [24]: 23 µM·h
AUC [25]: 5.2 µM·h
AUC [45]: 23 µM·h
Activity [27]: 5%
Activity [28]: 8%
Activity [29]: 40%
Activity [30]: 19%
Activity [31]: 35%
Cmax [46]: 12 µM
AUC [47]: 49 µM·h
Cmax [48]: 31 µM
Vd [32]: 2.9 L/kg
IC95 [33]: 0.045 µM

Cc1nnc(C(=O)NC(C)(C)c2nc(C(=O)NCc3ccc(F)cc3)c([O-])c(=O)n2C)o1.[K+] [RALTEGRAVIR POTASSIUM]
IC95 [1]: 0.031 µM
bioavailability [15]: 45%
bioavailability [16]: 69%
Cmax [19]: 24 µM
Cmax [49]: 1.6 µM
Cmax [20]: 4.6 µM
half-life [43]: 7.5 h
half-life [44]: 13 h
AUC [23]: 1.3 µM·h
AUC [26]: 11 µM·h
concentration at 12 h [50]: 0.35 µM
concentration at 12 h [51]: 0.16 µM
